Measurements reported in ChEMBL document CHEMBL1201862, “PubChem BioAssay data set” (2004).
The source made the active and inactive calls. Rule as the data show it, for most assays here: actives have a measured EC50 and inactives only a lower limit.

Key:
P388/ADR = assay: cells; type: functional; conditions: Mus musculus
SN12K1 = assay: cells; type: functional; conditions: Homo sapiens
P388 = assay: cells; type: functional; conditions: Mus musculus
[1] = Luminescence Cell-Based Dose Confirmation HTS to Identify Activators of 5'UTR Stem-Loop Driven Alpha-Synuclein mRNA Translation in H4 Neuroglioblastoma Cells. [Related pubchem assays: 1829 (Project Summary), 1814 (Primary HTS)]; type: functional
[2] = Luminescence Cell-Based Dose Response HTS to Identify Activators of Luciferase Translation or Activity in H4 […] Cells. [Related pubchem assays: 1829 (Project Summary), 1814 (Primary HTS)]; type: functional
H4 = assay: Luminescence Cell-Based Dose Response HTS to Identify Activators of 5'UTR Stem-Loop Driven Prion Protein mRNA Translation in H4 Neuroglioblastoma Cells. [Related pubchem assays: 1829 (Project Summary), 1814 (Primary HTS)]; type: functional; conditions: Homo sapiens
[3] = NIH-3T3 fibroblast cytotoxicity, dose response, cytotoxicity control, cell-based, fluorescence, Alamar Blue, secondary assay (AID 2327); type: functional;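 also: NIH-3T3 mouse fibroblasts cultured with fluconazole at 8 µg/mL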
[4] = C. albicans growth with fluconazole, confirmation, fluorescence, retest (AID 2467); type: functional, cell-based
[5] = target: T1, Heat shock factor protein 1 (Mus musculus, UniProt P38532); assay: HSF1 potentiators in luciferase reporter cells, confirmation, cell-based, NIH3T3, luminescence, dose retest (AID 435004); type: functional;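 also: stress induced by proteasome inhibitor MG132 added 30 min after compound; luciferase reporter driven by HSF1 response element in NIH3T3 cells; actives raise luminescence as potentiators of the MG132 stress response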
T1 sequence (P38532 whole entry): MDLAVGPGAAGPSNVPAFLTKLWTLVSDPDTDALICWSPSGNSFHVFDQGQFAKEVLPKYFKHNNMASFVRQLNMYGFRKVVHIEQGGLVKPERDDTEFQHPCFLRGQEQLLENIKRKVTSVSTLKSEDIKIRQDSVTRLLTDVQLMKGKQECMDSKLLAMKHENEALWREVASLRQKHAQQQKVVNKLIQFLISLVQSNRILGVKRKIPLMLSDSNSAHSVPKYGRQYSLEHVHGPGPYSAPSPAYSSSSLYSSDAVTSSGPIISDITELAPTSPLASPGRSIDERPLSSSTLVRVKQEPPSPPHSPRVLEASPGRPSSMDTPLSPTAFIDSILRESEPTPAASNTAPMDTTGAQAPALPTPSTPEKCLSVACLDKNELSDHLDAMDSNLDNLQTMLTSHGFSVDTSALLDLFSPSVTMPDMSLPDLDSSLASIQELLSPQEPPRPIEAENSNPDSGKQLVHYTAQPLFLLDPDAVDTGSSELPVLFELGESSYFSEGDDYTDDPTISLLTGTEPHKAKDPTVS

[6] = target: Voltage-dependent T-type calcium channel subunit alpha-1H (Homo sapiens, UniProt O95180); type: functional;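 also: channel activity triggered by adding a high calcium stimulation buffer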
Fatty acid synthase [7] = target: T2, Fatty acid synthase (Homo sapiens, UniProt P49327); assay: FAS thioesterase domain inhibitors, dose response, biochemical, endpoint fluorescence intensity, uHTS hits (AID 624327); type: functional;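 also: fluorescence from hydrolysis of an O-methyl fluorescein acyl ester substrate by the enzyme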
Fatty acid synthase [8] = target: T2, Fatty acid synthase; assay: FAS thioesterase domain inhibitors, dose response, biochemical, kinetic fluorescence intensity (AID 624326); type: functional;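 also: rate of fluorescence rise from hydrolysis of a fluorogenic O-methyl fluorescein ester substrate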
[9] = system: Streptococcus sp. 'group A'; assay: growth inhibition of control SK(-) GAS strain, dose response, counter-screen for streptokinase expression inhibitor project, luminescence, kanamycin, BacTiterGlo, confirmation (AID 1900); type: functional, organism-based
Streptokinase A = target: T3, Streptokinase A (Streptococcus pyogenes serotype M1, UniProt P10520); assay: S. pyogenes streptokinase expression inhibitors, potency, dose response, plasminogen activation absorbance, OD405 (AID 1914); type: functional, Streptococcus pyogenes M1 GAS;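 also: secreted streptokinase activity via plasminogen activation per viability signal from cell pellet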
T3 sequence (P10520 whole entry): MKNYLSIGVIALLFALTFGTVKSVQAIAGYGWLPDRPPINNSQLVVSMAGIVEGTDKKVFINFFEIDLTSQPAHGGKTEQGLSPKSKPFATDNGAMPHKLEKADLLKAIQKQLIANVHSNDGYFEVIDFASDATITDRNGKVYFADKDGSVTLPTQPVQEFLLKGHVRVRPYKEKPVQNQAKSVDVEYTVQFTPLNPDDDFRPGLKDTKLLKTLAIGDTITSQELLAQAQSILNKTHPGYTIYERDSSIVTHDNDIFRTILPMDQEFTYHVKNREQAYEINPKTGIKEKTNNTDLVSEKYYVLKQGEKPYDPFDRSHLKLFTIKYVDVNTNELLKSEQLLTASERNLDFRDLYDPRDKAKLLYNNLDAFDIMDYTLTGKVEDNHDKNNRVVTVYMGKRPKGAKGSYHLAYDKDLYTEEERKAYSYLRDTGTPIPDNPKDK

Streptococcus = assay: Group A Streptococcus viability loss, dose response, counter-screen for streptokinase expression inhibitor project, luminescence, BacTiterGlo (AID 1915); type: functional, organism-based;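 also: potency for reduction of bacterial viability or growth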
Caspase-6 = target: T4, Caspase-6 (Homo sapiens, UniProt P55212); assay: human caspase-6 inhibitors, dose response, biochemical, VEID-R110 fluorescence, cherry-pick (AID 720632)
T4 sequence (P55212 whole entry): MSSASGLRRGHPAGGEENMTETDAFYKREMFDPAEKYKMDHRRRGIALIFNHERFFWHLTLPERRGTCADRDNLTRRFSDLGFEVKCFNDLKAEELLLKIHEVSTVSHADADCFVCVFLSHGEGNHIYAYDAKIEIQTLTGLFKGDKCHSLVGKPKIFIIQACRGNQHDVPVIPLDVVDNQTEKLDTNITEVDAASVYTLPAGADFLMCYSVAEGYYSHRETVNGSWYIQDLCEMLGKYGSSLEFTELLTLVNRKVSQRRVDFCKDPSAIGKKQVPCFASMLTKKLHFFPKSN

T2 sequence (P49327 whole entry, the tested form may be a part): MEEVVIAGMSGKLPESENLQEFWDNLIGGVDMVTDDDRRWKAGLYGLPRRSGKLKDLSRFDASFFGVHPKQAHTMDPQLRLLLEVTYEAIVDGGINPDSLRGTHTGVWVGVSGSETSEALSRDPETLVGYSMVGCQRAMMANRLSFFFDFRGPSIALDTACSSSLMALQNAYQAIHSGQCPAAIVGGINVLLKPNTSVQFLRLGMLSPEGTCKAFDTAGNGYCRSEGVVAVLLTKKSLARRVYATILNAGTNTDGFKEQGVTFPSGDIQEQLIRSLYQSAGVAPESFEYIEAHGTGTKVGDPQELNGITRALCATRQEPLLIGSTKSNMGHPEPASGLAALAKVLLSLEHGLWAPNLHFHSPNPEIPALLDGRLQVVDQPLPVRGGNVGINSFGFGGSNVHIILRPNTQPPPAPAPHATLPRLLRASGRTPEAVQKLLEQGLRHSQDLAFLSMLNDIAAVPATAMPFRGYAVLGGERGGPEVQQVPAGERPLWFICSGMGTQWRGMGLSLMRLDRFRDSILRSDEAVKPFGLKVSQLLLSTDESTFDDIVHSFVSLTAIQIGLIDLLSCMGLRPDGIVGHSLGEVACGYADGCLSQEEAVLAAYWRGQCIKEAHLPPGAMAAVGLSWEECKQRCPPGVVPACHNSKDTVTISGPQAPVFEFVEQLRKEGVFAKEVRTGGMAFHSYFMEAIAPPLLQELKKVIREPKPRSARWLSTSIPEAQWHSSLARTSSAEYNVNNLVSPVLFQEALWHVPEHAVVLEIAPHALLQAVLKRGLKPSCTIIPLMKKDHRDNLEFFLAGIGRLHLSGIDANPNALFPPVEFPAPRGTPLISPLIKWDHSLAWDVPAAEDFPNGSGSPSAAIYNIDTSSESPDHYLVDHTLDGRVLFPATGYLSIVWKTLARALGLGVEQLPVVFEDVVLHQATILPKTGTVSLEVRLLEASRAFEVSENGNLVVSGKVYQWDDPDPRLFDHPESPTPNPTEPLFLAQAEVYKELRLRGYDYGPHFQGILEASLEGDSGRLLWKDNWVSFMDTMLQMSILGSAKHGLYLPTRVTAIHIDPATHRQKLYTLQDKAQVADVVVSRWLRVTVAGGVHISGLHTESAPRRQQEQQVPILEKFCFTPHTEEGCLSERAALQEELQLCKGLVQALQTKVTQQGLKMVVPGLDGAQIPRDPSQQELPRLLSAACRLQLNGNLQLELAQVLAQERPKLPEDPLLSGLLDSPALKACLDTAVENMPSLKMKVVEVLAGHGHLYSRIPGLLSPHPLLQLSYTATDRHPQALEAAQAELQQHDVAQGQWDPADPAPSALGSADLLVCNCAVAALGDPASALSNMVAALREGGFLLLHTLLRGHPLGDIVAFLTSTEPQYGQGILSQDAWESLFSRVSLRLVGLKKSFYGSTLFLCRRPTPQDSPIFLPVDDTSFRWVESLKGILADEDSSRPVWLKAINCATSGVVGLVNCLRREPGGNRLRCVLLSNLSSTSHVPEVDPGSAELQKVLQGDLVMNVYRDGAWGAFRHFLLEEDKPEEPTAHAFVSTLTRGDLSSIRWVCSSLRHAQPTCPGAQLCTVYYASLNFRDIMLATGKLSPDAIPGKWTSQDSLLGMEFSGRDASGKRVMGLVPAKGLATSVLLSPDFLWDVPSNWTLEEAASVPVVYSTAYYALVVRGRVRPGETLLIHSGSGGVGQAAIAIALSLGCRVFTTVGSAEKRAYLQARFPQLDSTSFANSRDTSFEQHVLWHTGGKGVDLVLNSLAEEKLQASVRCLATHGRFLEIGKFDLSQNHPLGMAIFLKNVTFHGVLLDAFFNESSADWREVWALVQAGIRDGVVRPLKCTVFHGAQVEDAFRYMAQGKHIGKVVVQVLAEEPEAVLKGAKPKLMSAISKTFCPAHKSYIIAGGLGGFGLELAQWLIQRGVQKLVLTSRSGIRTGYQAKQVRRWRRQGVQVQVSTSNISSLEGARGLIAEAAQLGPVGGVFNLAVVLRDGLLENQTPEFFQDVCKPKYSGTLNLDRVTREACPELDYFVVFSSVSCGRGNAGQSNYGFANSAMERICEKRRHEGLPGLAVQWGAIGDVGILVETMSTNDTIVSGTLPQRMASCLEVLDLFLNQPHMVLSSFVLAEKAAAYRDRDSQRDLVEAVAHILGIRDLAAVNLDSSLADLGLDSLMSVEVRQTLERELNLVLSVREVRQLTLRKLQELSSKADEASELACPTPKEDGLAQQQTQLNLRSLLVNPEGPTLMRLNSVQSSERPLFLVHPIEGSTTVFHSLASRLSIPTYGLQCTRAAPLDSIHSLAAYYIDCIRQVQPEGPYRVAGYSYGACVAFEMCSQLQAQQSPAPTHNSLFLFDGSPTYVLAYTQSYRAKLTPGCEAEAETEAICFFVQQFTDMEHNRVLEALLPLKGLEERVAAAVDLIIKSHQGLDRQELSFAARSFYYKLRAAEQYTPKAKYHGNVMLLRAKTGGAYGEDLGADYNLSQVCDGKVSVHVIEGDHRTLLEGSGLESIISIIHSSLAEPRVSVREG
Chain of Voltage-dependent T-type calcium channel subunit alpha-1H (O95180 whole entry, the tested form may be a part): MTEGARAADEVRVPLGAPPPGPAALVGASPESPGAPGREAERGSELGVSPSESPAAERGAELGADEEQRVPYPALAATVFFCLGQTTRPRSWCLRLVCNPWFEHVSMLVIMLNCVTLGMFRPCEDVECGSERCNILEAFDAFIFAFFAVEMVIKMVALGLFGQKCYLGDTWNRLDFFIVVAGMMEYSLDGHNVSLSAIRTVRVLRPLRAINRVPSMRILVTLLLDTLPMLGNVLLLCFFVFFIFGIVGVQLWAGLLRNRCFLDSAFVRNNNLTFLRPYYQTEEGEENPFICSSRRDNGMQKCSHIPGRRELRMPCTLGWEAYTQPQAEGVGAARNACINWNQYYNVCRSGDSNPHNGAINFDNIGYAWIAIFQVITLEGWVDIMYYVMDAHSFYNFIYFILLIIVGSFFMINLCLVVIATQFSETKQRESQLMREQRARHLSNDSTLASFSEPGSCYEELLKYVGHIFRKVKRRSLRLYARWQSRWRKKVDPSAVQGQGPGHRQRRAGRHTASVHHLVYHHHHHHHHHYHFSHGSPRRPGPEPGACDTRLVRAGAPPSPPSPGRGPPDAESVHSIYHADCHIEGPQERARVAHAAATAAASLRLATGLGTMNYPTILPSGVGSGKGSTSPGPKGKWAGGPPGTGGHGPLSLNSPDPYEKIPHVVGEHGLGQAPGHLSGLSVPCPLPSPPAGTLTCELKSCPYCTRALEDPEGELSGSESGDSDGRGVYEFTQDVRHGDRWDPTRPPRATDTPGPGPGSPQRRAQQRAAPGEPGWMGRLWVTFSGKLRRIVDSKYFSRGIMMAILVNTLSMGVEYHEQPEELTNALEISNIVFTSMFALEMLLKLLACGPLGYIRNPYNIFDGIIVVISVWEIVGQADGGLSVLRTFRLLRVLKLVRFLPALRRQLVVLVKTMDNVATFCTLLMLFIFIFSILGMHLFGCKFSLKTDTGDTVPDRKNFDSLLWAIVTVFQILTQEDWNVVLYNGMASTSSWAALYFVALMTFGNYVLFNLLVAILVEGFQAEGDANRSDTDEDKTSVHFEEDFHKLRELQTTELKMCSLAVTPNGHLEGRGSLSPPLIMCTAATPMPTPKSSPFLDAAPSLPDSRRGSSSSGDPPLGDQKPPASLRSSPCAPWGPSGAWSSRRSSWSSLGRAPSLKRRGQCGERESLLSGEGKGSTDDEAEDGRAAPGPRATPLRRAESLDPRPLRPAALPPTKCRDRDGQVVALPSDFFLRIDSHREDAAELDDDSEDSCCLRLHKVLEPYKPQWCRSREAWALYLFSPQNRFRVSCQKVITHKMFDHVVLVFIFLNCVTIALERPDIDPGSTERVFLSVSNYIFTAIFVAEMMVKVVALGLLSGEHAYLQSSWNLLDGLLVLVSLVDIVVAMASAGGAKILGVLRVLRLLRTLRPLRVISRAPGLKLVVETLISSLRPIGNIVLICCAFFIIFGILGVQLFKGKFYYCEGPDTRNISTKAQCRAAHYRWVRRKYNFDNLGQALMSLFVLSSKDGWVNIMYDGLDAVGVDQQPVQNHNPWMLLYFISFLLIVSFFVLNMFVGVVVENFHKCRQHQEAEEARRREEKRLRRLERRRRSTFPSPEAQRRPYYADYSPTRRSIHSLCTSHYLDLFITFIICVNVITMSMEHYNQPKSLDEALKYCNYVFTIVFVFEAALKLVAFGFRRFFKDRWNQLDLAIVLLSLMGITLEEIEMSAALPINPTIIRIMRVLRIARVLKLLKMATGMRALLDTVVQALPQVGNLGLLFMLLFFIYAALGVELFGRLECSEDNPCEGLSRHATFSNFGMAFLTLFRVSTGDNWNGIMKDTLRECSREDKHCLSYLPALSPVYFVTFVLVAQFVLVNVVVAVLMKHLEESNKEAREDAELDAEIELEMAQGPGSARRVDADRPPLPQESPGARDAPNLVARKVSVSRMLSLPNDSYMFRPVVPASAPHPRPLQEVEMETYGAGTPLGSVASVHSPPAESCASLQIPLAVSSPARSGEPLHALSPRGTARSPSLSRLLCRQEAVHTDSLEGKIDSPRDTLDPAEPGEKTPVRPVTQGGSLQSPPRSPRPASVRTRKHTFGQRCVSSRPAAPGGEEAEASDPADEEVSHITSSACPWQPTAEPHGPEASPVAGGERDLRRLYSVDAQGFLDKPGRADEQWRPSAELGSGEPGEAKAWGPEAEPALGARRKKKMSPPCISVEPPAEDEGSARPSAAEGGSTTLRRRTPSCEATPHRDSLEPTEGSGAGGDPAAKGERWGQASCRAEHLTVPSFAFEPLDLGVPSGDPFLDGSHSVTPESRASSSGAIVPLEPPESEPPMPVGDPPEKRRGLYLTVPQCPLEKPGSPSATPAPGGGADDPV

O=S(=O)(O)c1cc2ccc1/C=C\c1ccc(cc1S(=O)(=O)O)/N=N\c1ccc(c(S(=O)(=O)O)c1)/C=C\c1ccc(cc1S(=O)(=O)O)/N=N\2
GI50 (P388/ADR): > 100 µM (inactive)
GI50 (SN12K1): > 100 µM (inactive)
GI50 (P388): > 100 µM (inactive)

CC(/C=N/N=C(N)N)=N\N=C(N)N
GI50 (P388/ADR): 0.519 µM (active)
GI50 (SN12K1): 2.17 µM (inactive)
GI50 (P388): 0.25 µM (active)

CN(C)CCNC(=O)c1cccc2c1C(=O)c1ccccc1C2=O
GI50 (P388/ADR): 20.8 µM (inactive)
GI50 (SN12K1): 49.5 µM (inactive)
GI50 (P388): 19.7 µM (inactive)

O=C(OCC(=O)N1CCCC1=O)c1nc(Cl)c(Cl)c(Cl)c1Cl
EC50 [1]: 14.4 µM (active)
EC50 [2]: > 120 µM (not active)
EC50 (H4): > 120 µM (not active)

Cc1ccc(C(=O)Cn2c(-c3ccccc3)noc2=O)cc1
EC50 [1]: 13.1 µM (active)
EC50 [2]: 12.4 µM (active)
EC50 (H4): 15 µM (active)

Sc1nc2cc(Cl)c3cccnc3c2o1
EC50 [3]: > 150 µM (inactive)
EC50 [4]: > 38 µM (not active)
EC50 [5]: > 260 µM (inactive)

CN1CCC(=NNC(=O)C(=O)Nc2ccc(F)cc2)CC1
EC50 [1]: 14.5 µM (active)
EC50 [2]: 23.6 µM (active)
EC50 (H4): 15 µM (active)

CC(NC(=O)CCC(=O)NC(C)C1COc2ccccc2O1)C1COc2ccccc2O1 (centres undefined)
EC50 [6]: 4.07 µM (active)

O=C1CC(N2CCN(c3ccc(S(=O)(=O)N4CCOCC4)cc3)CC2)C(=O)N1Cc1ccccc1 (centres undefined)
IC50 (Fatty acid synthase [7]): 8.79 µM (active)
IC50 (Fatty acid synthase [8]): 7.53 µM (active)

O=C(NCc1ccco1)c1cc2c(s1)CCCCC2
EC50 [1]: 34 µM (active)
EC50 [2]: 41.9 µM (active)
EC50 (H4): > 120 µM (not active)

O=C(CC1C[C@H](C(=O)N2CCOCC2)[C@@]2(CCC3CCCC3)c3[nH]c4ccccc4c3CCN2C1=O)NCCCn1ccnc1 (some centres undefined)
IC50 (Fatty acid synthase [7]): 4.37 µM (active)
IC50 (Fatty acid synthase [8]): 2.7 µM (active)

Cc1cc(Sc2nc(N)ncc2[N+](=O)[O-])ncn1
EC50 [3]: 4.19 µM (inconclusive)
EC50 [4]: 0.746 µM (active)

O=CNCCCc1nc2ccccc2n1Cc1cccc2ccccc12
EC50 [3]: > 150 µM (inactive)
EC50 [4]: 4.77 µM (active)

[O-][n+]1c2ccccc2[n+]([O-])c2cc(O)ccc21
EC50 [9]: 7.97 µM (active)
EC50 (Streptokinase A): > 150 µM (not active)
EC50 (Streptococcus): 17.3 µM (active)
AC50 (Caspase-6): 6.89 µM (active)

COc1ccc(-n2c(C)cc(/C=C/c3nc(O)c([N+](=O)[O-])c(O)n3)c2C)cc1
AC50 (Caspase-6): 18.8 µM (active)

Nc1ncc2c(n1)-c1ccccc1OC2
GI50 (SN12K1): > 100 µM (inactive)
GI50 (P388): > 100 µM (inactive)

CCCCC/C=C\C/C=C\C/C=C\CCCCC(=O)O [GAMOLENIC ACID]
AC50 (Caspase-6): 0.505 µM (active)

NC(S)=NNc1cccc(Cl)c1
EC50 [3]: > 160 µM (inactive)
EC50 [4]: > 38 µM (not active)

O=C(Nc1cc([N+](=O)[O-])ccc1O)c1ccc2c(c1)C(=O)N(Cc1ccco1)C2=O
AC50 (Caspase-6): 18.5 µM (active)
